Columns and labels:
ICR male mice = assay: Thioglycollate-induced inflammation model; assay type: in vivo; conditions: peritoneal cavity, 96 h after thioglycollate; 10 mg/kg subcutaneous at 0 h, 3 h and 16 h
Protocol: 3% Brewer's thioglycollate broth (Difco, Detroit, Mich.) was injected into the peritoneal cavity of ICR male mice, followed by subcutaneous administration of the same dose of test compound after 0 h, 3 h and 16 hours post-thioglycollate injection, respectively. After 96 h, the number of total elicited cells and MOMA2-positive cells in the peritoneal cavity was analyzed using a flowcytometer (EPICS XL, Beckman Coulter).

male Wistar rats = assay: Anti-Thy-1 antibody induced nephritis model; assay type: in vivo; conditions: 1 mg/kg subcutaneous, 2 h before, immediately after, 5 h after anti-Thy-1 antibody, then twice a day for 2 days
Protocol: The efficacy of the compounds of the present invention was also evaluated in an animal model of nephritis. This model simulates very closely the conditions found in human mesangial proliferative glomerulonephritis.
Anti-Thy-1 nephritis was induced by intravenous injection of anti-Thy-1-antibody to male Wistar rats. The test compound was subcutaneously administered 2 h before, immediately after, and 5 h after the anti-Thy-1 antibody treatment, and then twice a day for the following 2 days. Anti-MCP-1 antibody was intraperitoneally injected once a day for 3 days. Seven days after the anti-Thy-1 antibody treatment, the rats were sacrificed. The kidneys were perfused with 10% formaldehyde in PBS, surgically removed, and immersed in 10% formaldehyde. The kidneys were then embedded in paraffin for glomerular histopathology or in OCT compound Miles Inc., Elkhart, Ind.) in liquid nitrogen after immersion in 30% sucrose overnight. Immunohistochemical staining was performed with a mouse anti-rat ED-1 monoclonal antibody. Briefly, […] renal sections were prepared and endogenous peroxidase blocked with 0.3% hydrogen peroxide. The sections were then blocked with Protein Block (DAKO, Japan) and stained with anti-ED-1 antibody for 45 min. […] The amount of urinary protein was determined with the DC protein assay kit (Bio-Rad, Hercules, Calif.). […]

## O=C(NC(=O)c1ccc2c(c1)OCO2)Nc1cccc(C(F)(F)F)c1 [Compound 16, 2H-Benzo[3,4-d]1,3-dioxolen-5-yl-N-({[3-(trifluoromethyl)phenyl]amino}carbonyl)carboxamide]
ICR male mice
  MOMA2-positive Cells: 7.5 ± 1.6 × 10^6
  Total Cells: 8.8 ± 1.5 × 10^6

## O=C(NC(=O)c1ccc2ncoc2c1)Nc1ccc(Cl)c(Cl)c1 [Compound 80, Benzoxazol-6-yl-N-{[(3,4-dichlorophenyl)amino]carbonyl}carboxamide]
Male Wistar rats
  Urinary Protein: 162.1 ± 42.6 mg/day

## O=C(NC(=O)c1ccc2ncoc2c1)Nc1ccc(C(F)(F)F)cc1 [Compound 82, Benzoxazol-6-yl-N-({[4-(trifluoromethyl)phenyl]amino}carbonyl)carboxamide]
ICR male mice
  MOMA2-positive Cells: 3.2 ± 0.4 × 10^6
  Total Cells: 4.2 ± 0.4 × 10^6

— patent publication US6998407B2, “Antagonists of MCP-1 function and methods of use thereof” (Telik, Inc., priority 2001, dated 2006)
